PubChem BioAssay (NCI)
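GI50 marks 50% less growth. TGI: concentration producing complete growth inhibition.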

How the values were obtained:
Experiment in all cases: NCI tumour cell line growth inhibition, 384-well format
786-0 renal = test system: 786-0 renal
A498 renal = test system: A498 renal
A549 NSCLC = test system: A549 NSCLC
ACHN renal = test system: ACHN renal
BT-549 breast = test system: BT-549 breast
CAKI-1 renal = test system: CAKI-1 renal
CCRF-CEM leukemia = test system: CCRF-CEM leukemia
DU-145 prostate = test system: DU-145 prostate
EKVX NSCLC = test system: EKVX NSCLC
HCT-116 colon = test system: HCT-116 colon
HCT-15 colon = test system: HCT-15 colon
HL-60(TB) leukemia = test system: HL-60(TB) leukemia
HOP-62 NSCLC = test system: HOP-62 NSCLC
HOP-92 NSCLC = test system: HOP-92 NSCLC
HS 578T breast = test system: HS 578T breast
HT29 colon = test system: HT29 colon
IGROV1 ovarian = test system: IGROV1 ovarian
K-562 leukemia = test system: K-562 leukemia
KM12 colon = test system: KM12 colon
LOX IMVI melanoma = test system: LOX IMVI melanoma
M14 melanoma = test system: M14 melanoma
MALME-3M melanoma = test system: MALME-3M melanoma
MCF7 breast = test system: MCF7 breast
MDA-MB-231 breast = test system: MDA-MB-231 breast
MDA-MB-435 melanoma = test system: MDA-MB-435 melanoma
MDA-MB-468 breast = test system: MDA-MB-468 breast
NCI-H226 lung = test system: NCI-H226 lung
NCI-H23 lung = test system: NCI-H23 lung
NCI-H322M lung = test system: NCI-H322M lung
NCI-H522 lung = test system: NCI-H522 lung
NCI/ADR-RES ovarian = test system: NCI/ADR-RES ovarian
OVCAR-3 ovarian = test system: OVCAR-3 ovarian
OVCAR-4 ovarian = test system: OVCAR-4 ovarian
OVCAR-5 ovarian = test system: OVCAR-5 ovarian
OVCAR-8 ovarian = test system: OVCAR-8 ovarian
PC-3 prostate = test system: PC-3 prostate
RPMI-8226 leukemia = test system: RPMI-8226 leukemia
RXF 393 renal = test system: RXF 393 renal
SF-268 CNS = test system: SF-268 CNS
SF-295 CNS = test system: SF-295 CNS
SF-539 CNS = test system: SF-539 CNS
SK-MEL-2 melanoma = test system: SK-MEL-2 melanoma
SK-MEL-28 melanoma = test system: SK-MEL-28 melanoma
SK-OV-3 ovarian = test system: SK-OV-3 ovarian
SN12C renal = test system: SN12C renal
SNB-19 CNS = test system: SNB-19 CNS
SNB-75 CNS = test system: SNB-75 CNS
SW-620 colon = test system: SW-620 colon
T-47D breast = test system: T-47D breast
TK-10 renal = test system: TK-10 renal
U251 glioblastoma = test system: U251 glioblastoma
UACC-257 melanoma = test system: UACC-257 melanoma
UACC-62 melanoma = test system: UACC-62 melanoma
UO-31 renal = test system: UO-31 renal

COc1cc([C@@H]2c3cc4c(cc3[C@@H](OC3OC5CO[C@@H](c6cccs6)OC5C(O)C3O)[C@H]3COC(=O)[C@H]23)OCO4)cc(OC)c1O (stereo not given in full)
GI50 ([…]-0 renal): 197 nM
TGI (786-0 renal): 1180 nM
GI50 (A498 renal): 206 nM
TGI (A498 renal): 3510 nM
GI50 (A549 NSCLC): 173 nM
TGI (A549 NSCLC): 4080 nM
GI50 (ACHN renal): 296 nM
TGI (ACHN renal): 1710 nM
GI50 (BT-549 breast): 75.8 nM
TGI (BT-549 breast): 537 nM
GI50 (CAKI-1 renal): 224 nM
TGI (CAKI-1 renal): 4460 nM
TGI (CCRF-CEM leukemia): 21.9 nM
GI50 (DU-145 prostate): 212 nM
TGI (DU-145 prostate): 1210 nM
GI50 (EKVX NSCLC): 3010 nM
TGI (EKVX NSCLC): 28700 nM
GI50 (HCT-116 colon): 67.8 nM
TGI (HCT-116 colon): 2020 nM
GI50 (HCT-15 colon): 170 nM
TGI (HCT-15 colon): 1390 nM
TGI (HL-60(TB) leukemia): 11.6 nM
GI50 (HOP-62 NSCLC): 74.1 nM
TGI (HOP-62 NSCLC): 267 nM
GI50 (HOP-92 NSCLC): 321 nM
TGI (HOP-92 NSCLC): 8750 nM
GI50 (HS 578T breast): 62.4 nM
TGI (HS 578T breast): 703 nM
GI50 (HT29 colon): 236 nM
TGI (HT29 colon): 1230 nM
GI50 (IGROV1 ovarian): 1350 nM
TGI (IGROV1 ovarian): 10000 nM
GI50 (K-562 leukemia): 154 nM
TGI (K-562 leukemia): 1420 nM
GI50 (KM12 colon): 113 nM
TGI (KM12 colon): 1350 nM
GI50 (LOX IMVI melanoma): 169 nM
TGI (LOX IMVI melanoma): 1570 nM
GI50 (M14 melanoma): 160 nM
TGI (M14 melanoma): 1150 nM
GI50 (MALME-3M melanoma): 671 nM
TGI (MALME-3M melanoma): 3970 nM
GI50 (MCF7 breast): 82.8 nM
TGI (MCF7 breast): 12200 nM
GI50 (MDA-MB-231 breast): 171 nM
TGI (MDA-MB-231 breast): 599 nM
GI50 (MDA-MB-435 melanoma): 756 nM
TGI (MDA-MB-435 melanoma): 2430 nM
GI50 (MDA-MB-468 breast): 138 nM
TGI (MDA-MB-468 breast): 350 nM
GI50 (NCI-H226 lung): 311 nM
TGI (NCI-H226 lung): 8810 nM
GI50 (NCI-H23 lung): 77.1 nM
TGI (NCI-H23 lung): 664 nM
GI50 (NCI-H322M lung): 3250 nM
TGI (NCI-H322M lung): 14300 nM
GI50 (NCI-H522 lung): 198 nM
TGI (NCI-H522 lung): 1530 nM
GI50 (NCI/ADR-RES ovarian): 63700 nM
TGI (NCI/ADR-RES ovarian): > 100000 nM
GI50 (OVCAR-3 ovarian): 348 nM
TGI (OVCAR-3 ovarian): 2070 nM
GI50 (OVCAR-4 ovarian): 3420 nM
TGI (OVCAR-4 ovarian): 17400 nM
GI50 (OVCAR-5 ovarian): 395 nM
TGI (OVCAR-5 ovarian): 2410 nM
GI50 (OVCAR-8 ovarian): 151 nM
TGI (OVCAR-8 ovarian): 1470 nM
GI50 (PC-3 prostate): 1390 nM
TGI (PC-3 prostate): 5760 nM
TGI (RPMI-8226 leukemia): 161 nM
GI50 (RXF 393 renal): 685 nM
TGI (RXF 393 renal): 2510 nM
GI50 (SF-268 CNS): 134 nM
TGI (SF-268 CNS): 1350 nM
GI50 (SF-295 CNS): 103 nM
TGI (SF-295 CNS): 490 nM
GI50 (SF-539 CNS): 95.9 nM
TGI (SF-539 CNS): 560 nM
GI50 (SK-MEL-2 melanoma): 567 nM
TGI (SK-MEL-2 melanoma): 890 nM
GI50 (SK-MEL-28 melanoma): 321 nM
TGI (SK-MEL-28 melanoma): 1970 nM
GI50 (SK-OV-3 ovarian): 326 nM
TGI (SK-OV-3 ovarian): 2670 nM
GI50 (SN12C renal): 139 nM
TGI (SN12C renal): 665 nM
GI50 (SNB-19 CNS): 219 nM
TGI (SNB-19 CNS): > 100000 nM
GI50 (SNB-75 CNS): 327 nM
TGI (SNB-75 CNS): 1780 nM
GI50 (SW-620 colon): 44.9 nM
TGI (SW-620 colon): 1350 nM
GI50 (T-47D breast): 146 nM
TGI (T-47D breast): 27300 nM
GI50 (TK-10 renal): 825 nM
TGI (TK-10 renal): 2240 nM
GI50 (U251 glioblastoma): 67.4 nM
TGI (U251 glioblastoma): 1200 nM
GI50 (UACC-257 melanoma): 2850 nM
TGI (UACC-257 melanoma): 13100 nM
GI50 (UACC-62 melanoma): 103 nM
TGI (UACC-62 melanoma): 1800 nM
GI50 (UO-31 renal): 4000 nM
TGI (UO-31 renal): 17500 nM
